Assays:
RPMI-8226 = assay: Induction of necrosis in human RPMI-8226 cells assessed as LDH release at 5.47 uM; format: functional
[1] = system: Serine/threonine-protein kinase B-raf (Homo sapiens), P15056 [V600E]; assay: Inhibition of B-RAF V600E mutant (unknown origin) at 1 uM relative to control
Sequence of Serine/threonine-protein kinase B-raf (Homo sapiens), P15056 [V600E] (P15056 whole entry V600E): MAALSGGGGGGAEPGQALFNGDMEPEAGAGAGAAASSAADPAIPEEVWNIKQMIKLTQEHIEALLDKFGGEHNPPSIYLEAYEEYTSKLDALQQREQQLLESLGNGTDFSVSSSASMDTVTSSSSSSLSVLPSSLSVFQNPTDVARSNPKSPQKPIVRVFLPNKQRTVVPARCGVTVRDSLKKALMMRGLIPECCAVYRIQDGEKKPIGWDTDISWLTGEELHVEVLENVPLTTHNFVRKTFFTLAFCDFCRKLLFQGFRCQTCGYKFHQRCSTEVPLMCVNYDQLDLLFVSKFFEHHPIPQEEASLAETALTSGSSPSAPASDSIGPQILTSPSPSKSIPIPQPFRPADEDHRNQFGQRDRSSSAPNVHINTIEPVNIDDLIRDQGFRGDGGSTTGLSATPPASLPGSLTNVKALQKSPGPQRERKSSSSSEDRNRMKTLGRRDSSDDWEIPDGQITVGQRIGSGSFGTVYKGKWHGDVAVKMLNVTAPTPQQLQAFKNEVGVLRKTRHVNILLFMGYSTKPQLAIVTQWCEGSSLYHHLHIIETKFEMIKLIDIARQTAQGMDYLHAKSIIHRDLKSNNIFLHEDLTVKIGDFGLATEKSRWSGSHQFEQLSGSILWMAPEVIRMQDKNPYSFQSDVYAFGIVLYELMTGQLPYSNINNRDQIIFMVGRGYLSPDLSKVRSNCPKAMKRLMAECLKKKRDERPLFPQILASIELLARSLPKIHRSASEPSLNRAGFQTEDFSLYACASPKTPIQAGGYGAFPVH

With `O=C(NCCCNc1cc(-c2cn(-c3ccccc3)nc2-c2cccc(O)c2)ccn1)Nc1ccc(F)cc1` as the molecule, how does the Activity (RPMI-8226) read?
Its Activity is 32.4%.

What about the inhibition [1] of the same molecule?
Its inhibition is 4%.
